{
  "source": "patent US20230085307A1",
  "about": "“PYRIDAZINONE COMPOUND AND HERBICIDE” (NISSAN CHEMICAL CORPORATION, priority 2019, published 2023)",
  "key": {"blackgrass [1]": {"tested_on": "blackgrass", "assay": "Test Example 4: herbicidal effect by soil treatment (Table 19, symbol J)", "assay_type": "in vivo, blackgrass (Alopecurus myosuroides)", "settings": "amount of applied herbicide 320 g/ha", "summary_of_the_method": "(§1)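 Emulsion of test compound, water-diluted to predetermined amount, sprayed on soil after sowing (seed depth ~1.5 cm, sterilized diluvial soil). Greenhouse, 25–30° C. Effect graded at three weeks post-spray.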"}, "Chinese sprangletop": {"tested_on": "Chinese sprangletop", "assay": "Test Example 3: herbicidal effect by foliage application, Wagner pot (Table 18, symbol D)", "assay_type": "in vivo, chinese sprangletop (Leptochloa chinensis)", "settings": "320 g/ha", "summary_of_the_method": "(§2)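 Plants were sown in alluvial soil held under 0.1–0.5 cm standing water and grown 14 days in a greenhouse at 25–30 °C. An emulsifiable formulation, water-diluted to the set dose, was then sprayed onto the foliage, and effects were scored three weeks later using previously defined criteria.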"}, "persian speedwell [2]": {"tested_on": "persian speedwell", "assay": "Test Example 5: herbicidal effect by foliage application, plastic box (Table 20, symbol R)", "assay_type": "in vivo, Persian speedwell (Veronica persica)", "settings": "foliage application, 320 g/ha, three weeks after application", "summary_of_the_method": "(§3)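 Post-emergence foliar test in sterilized diluvial soil. Compound applied as water-diluted emulsion at a predetermined rate to 14-day-old plants; evaluation at three weeks.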"}, "windgrass [3]": {"tested_on": "windgrass", "assay": "Test Example 4: herbicidal effect by soil treatment (Table 19, symbol L)", "assay_type": "in vivo, windgrass (Apera spica-venti)", "settings": "amount of applied herbicide 320 g/ha", "summary_of_the_method": "as §1"}, "barnyard grass [4]": {"tested_on": "barnyard grass", "assay": "Test Example 5: herbicidal effect by foliage application, plastic box (Table 20, symbol H)", "assay_type": "in vivo, barnyard grass (Echinochloa crus-galli)", "settings": "foliage application, 320 g/ha, three weeks after application", "summary_of_the_method": "as §3"}, "lambsquarters [5]": {"tested_on": "lambsquarters", "assay": "Test Example 4: herbicidal effect by soil treatment (Table 19, symbol O)", "assay_type": "in vivo, lambsquarters (Chenopodium album)", "settings": "amount of applied herbicide 320 g/ha", "summary_of_the_method": "as §1"}, "redroot pigweed [6]": {"tested_on": "redroot pigweed", "assay": "Test Example 4: herbicidal effect by soil treatment (Table 19, symbol N)", "assay_type": "in vivo, redroot pigweed (Amaranthus retroflexus)", "settings": "amount of applied herbicide 320 g/ha", "summary_of_the_method": "as §1"}, "chickweed [7]": {"tested_on": "chickweed", "assay": "Test Example 5: herbicidal effect by foliage application, plastic box (Table 20, symbol P)", "assay_type": "in vivo, common chickweed (Stellaria media)", "settings": "foliage application, 320 g/ha, three weeks after application", "summary_of_the_method": "as §3"}, "lambsquarters [8]": {"tested_on": "lambsquarters", "assay": "Test Example 5: herbicidal effect by foliage application, plastic box (Table 20, symbol O)", "assay_type": "in vivo, lambsquarters (Chenopodium album)", "settings": "foliage application, 320 g/ha, three weeks after application", "summary_of_the_method": "as §3"}, "chickweed [9]": {"tested_on": "chickweed", "assay": "Test Example 4: herbicidal effect by soil treatment (Table 19, symbol P)", "assay_type": "in vivo, common chickweed (Stellaria media)", "settings": "amount of applied herbicide 320 g/ha", "summary_of_the_method": "as §1"}, "wild oat [10]": {"tested_on": "wild oat", "assay": "Test Example 4: herbicidal effect by soil treatment (Table 19, symbol I)", "assay_type": "in vivo, wild oat (Avena fatua)", "settings": "amount of applied herbicide 320 g/ha", "summary_of_the_method": "as §1"}, "velvetleaf [11]": {"tested_on": "velvetleaf", "assay": "Test Example 5: herbicidal effect by foliage application, plastic box (Table 20, symbol M)", "assay_type": "in vivo, velvetleaf (Abutilon theophrasti)", "settings": "foliage application, 320 g/ha, three weeks after application", "summary_of_the_method": "as §3"}, "velvetleaf [12]": {"tested_on": "velvetleaf", "assay": "Test Example 4: herbicidal effect by soil treatment (Table 19, symbol M)", "assay_type": "in vivo, velvetleaf (Abutilon theophrasti)", "settings": "amount of applied herbicide 320 g/ha", "summary_of_the_method": "as §1"}, "wild oat [13]": {"tested_on": "wild oat", "assay": "Test Example 5: herbicidal effect by foliage application, plastic box (Table 20, symbol I)", "assay_type": "in vivo, wild oat (Avena fatua)", "settings": "foliage application, 320 g/ha, three weeks after application", "summary_of_the_method": "as §3"}, "persian speedwell [14]": {"tested_on": "persian speedwell", "assay": "Test Example 4: herbicidal effect by soil treatment (Table 19, symbol R)", "assay_type": "in vivo, Persian speedwell (Veronica persica)", "settings": "amount of applied herbicide 320 g/ha", "summary_of_the_method": "as §1"}, "green foxtail [15]": {"tested_on": "green foxtail", "assay": "Test Example 4: herbicidal effect by soil treatment (Table 19, symbol G)", "assay_type": "in vivo, green foxtail (Setaria viridis)", "settings": "amount of applied herbicide 320 g/ha", "summary_of_the_method": "as §1"}, "southern crabgrass [16]": {"tested_on": "southern crabgrass", "assay": "Test Example 5: herbicidal effect by foliage application, plastic box (Table 20, symbol F)", "assay_type": "in vivo, southern crabgrass (Digitaria ciliaris)", "settings": "foliage application, 320 g/ha, three weeks after application", "summary_of_the_method": "as §3"}, "southern crabgrass [17]": {"tested_on": "southern crabgrass", "assay": "Test Example 4: herbicidal effect by soil treatment (Table 19, symbol F)", "assay_type": "in vivo, southern crabgrass (Digitaria ciliaris)", "settings": "amount of applied herbicide 320 g/ha", "summary_of_the_method": "as §1"}, "redroot pigweed [18]": {"tested_on": "redroot pigweed", "assay": "Test Example 5: herbicidal effect by foliage application, plastic box (Table 20, symbol N)", "assay_type": "in vivo, redroot pigweed (Amaranthus retroflexus)", "settings": "foliage application, 320 g/ha, three weeks after application", "summary_of_the_method": "as §3"}, "Italian ryegrass [19]": {"tested_on": "Italian ryegrass", "assay": "Test Example 4: herbicidal effect by soil treatment (Table 19, symbol K)", "assay_type": "in vivo, Italian ryegrass (Lolium multiflorum)", "settings": "amount of applied herbicide 320 g/ha", "summary_of_the_method": "as §1"}, "barnyard grass [20]": {"tested_on": "barnyard grass", "assay": "Test Example 3: herbicidal effect by foliage application, Wagner pot (Table 18, symbol H)", "assay_type": "in vivo, barnyard grass (Echinochloa crus-galli)", "settings": "320 g/ha", "summary_of_the_method": "as §2"}, "rice flat sedge": {"tested_on": "rice flat sedge", "assay": "Test Example 3: herbicidal effect by foliage application, Wagner pot (Table 18, symbol E)", "assay_type": "in vivo, rice flat sedge (Cyperus iria)", "settings": "320 g/ha", "summary_of_the_method": "as §2"}, "green foxtail [21]": {"tested_on": "green foxtail", "assay": "Test Example 5: herbicidal effect by foliage application, plastic box (Table 20, symbol G)", "assay_type": "in vivo, green foxtail (Setaria viridis)", "settings": "foliage application, 320 g/ha, three weeks after application", "summary_of_the_method": "as §3"}, "barnyard grass [22]": {"tested_on": "barnyard grass", "assay": "Test Example 4: herbicidal effect by soil treatment (Table 19, symbol H)", "assay_type": "in vivo, barnyard grass (Echinochloa crus-galli)", "settings": "amount of applied herbicide 320 g/ha", "summary_of_the_method": "as §1"}, "blackgrass [23]": {"tested_on": "blackgrass", "assay": "Test Example 5: herbicidal effect by foliage application, plastic box (Table 20, symbol J)", "assay_type": "in vivo, blackgrass (Alopecurus myosuroides)", "settings": "foliage application, 320 g/ha, three weeks after application", "summary_of_the_method": "as §3"}, "Italian ryegrass [24]": {"tested_on": "Italian ryegrass", "assay": "Test Example 5: herbicidal effect by foliage application, plastic box (Table 20, symbol K)", "assay_type": "in vivo, Italian ryegrass (Lolium multiflorum)", "settings": "foliage application, 320 g/ha, three weeks after application", "summary_of_the_method": "as §3"}, "windgrass [25]": {"tested_on": "windgrass", "assay": "Test Example 5: herbicidal effect by foliage application, plastic box (Table 20, symbol L)", "assay_type": "in vivo, windgrass (Apera spica-venti)", "settings": "foliage application, 320 g/ha, three weeks after application", "summary_of_the_method": "as §3"}},
  "data": [
    {"smiles": "CCCC(=O)Oc1c(C)nn(C)c(=O)c1-c1c(-c2ccc(F)cc2OC)sc2ccccc12", "note": "[1-056]", "values": [
      {"measurement": "herbicidal effect rating, J: blackgrass", "setting": "blackgrass [1]", "value": "1 (Herbicidal rate of 5% or more and less than 20%)"},
      {"measurement": "herbicidal effect on D (Chinese sprangletop), rating 0-5", "setting": "Chinese sprangletop", "value": "2 (Herbicidal rate of 20% or more and less than 40%)"},
      {"measurement": "herbicidal effect grade, R: persian speedwell", "setting": "persian speedwell [2]", "value": "3 (Herbicidal rate of 40% or more and less than 70%)"},
      {"measurement": "herbicidal effect rating, L: windgrass", "setting": "windgrass [3]", "value": "5 (Herbicidal rate of 90% or more (almost completely withered))"},
      {"measurement": "herbicidal effect grade, H: barnyard grass", "setting": "barnyard grass [4]", "value": "4 (Herbicidal rate of 70% or more and less than 90%)"},
      {"measurement": "herbicidal effect rating, O: lambsquarters", "setting": "lambsquarters [5]", "value": "3 (Herbicidal rate of 40% or more and less than 70%)"},
      {"measurement": "herbicidal effect rating, N: redroot pigweed", "setting": "redroot pigweed [6]", "value": "5 (Herbicidal rate of 90% or more (almost completely withered))"},
      {"measurement": "herbicidal effect grade, P: chickweed", "setting": "chickweed [7]", "value": "5 (Herbicidal rate of 90% or more (almost completely withered))"},
      {"measurement": "herbicidal effect grade, O: lambsquarters", "setting": "lambsquarters [8]", "value": "2 (Herbicidal rate of 20% or more and less than 40%)"},
      {"measurement": "herbicidal effect rating, P: chickweed", "setting": "chickweed [9]", "value": "3 (Herbicidal rate of 40% or more and less than 70%)"},
      {"measurement": "herbicidal effect rating, I: wild oat", "setting": "wild oat [10]", "value": "3 (Herbicidal rate of 40% or more and less than 70%)"},
      {"measurement": "herbicidal effect grade, M: velvetleaf", "setting": "velvetleaf [11]", "value": "4 (Herbicidal rate of 70% or more and less than 90%)"},
      {"measurement": "herbicidal effect rating, M: velvetleaf", "setting": "velvetleaf [12]", "value": "0 (Herbicidal rate of 5% or less (almost no effect))"},
      {"measurement": "herbicidal effect grade, I: wild oat", "setting": "wild oat [13]", "value": "4 (Herbicidal rate of 70% or more and less than 90%)"},
      {"measurement": "herbicidal effect rating, R: persian speedwell", "setting": "persian speedwell [14]", "value": "4 (Herbicidal rate of 70% or more and less than 90%)"},
      {"measurement": "herbicidal effect rating, G: green foxtail", "setting": "green foxtail [15]", "value": "5 (Herbicidal rate of 90% or more (almost completely withered))"},
      {"measurement": "herbicidal effect grade, F: southern crabgrass", "setting": "southern crabgrass [16]", "value": "5 (Herbicidal rate of 90% or more (almost completely withered))"},
      {"measurement": "herbicidal effect rating, F: southern crabgrass", "setting": "southern crabgrass [17]", "value": "3 (Herbicidal rate of 40% or more and less than 70%)"},
      {"measurement": "herbicidal effect grade, N: redroot pigweed", "setting": "redroot pigweed [18]", "value": "3 (Herbicidal rate of 40% or more and less than 70%)"},
      {"measurement": "herbicidal effect rating, K: Italian ryegrass", "setting": "Italian ryegrass [19]", "value": "0 (Herbicidal rate of 5% or less (almost no effect))"},
      {"measurement": "herbicidal effect on H (barnyard grass), rating 0-5", "setting": "barnyard grass [20]", "value": "4 (Herbicidal rate of 70% or more and less than 90%)"},
      {"measurement": "herbicidal effect on E (rice flat sedge), rating 0-5", "setting": "rice flat sedge", "value": "5 (Herbicidal rate of 90% or more (almost completely withered))"},
      {"measurement": "herbicidal effect grade, G: green foxtail", "setting": "green foxtail [21]", "value": "5 (Herbicidal rate of 90% or more (almost completely withered))"},
      {"measurement": "herbicidal effect rating, H: barnyard grass", "setting": "barnyard grass [22]", "value": "3 (Herbicidal rate of 40% or more and less than 70%)"},
      {"measurement": "herbicidal effect grade, J: blackgrass", "setting": "blackgrass [23]", "value": "4 (Herbicidal rate of 70% or more and less than 90%)"},
      {"measurement": "herbicidal effect grade, K: Italian ryegrass", "setting": "Italian ryegrass [24]", "value": "1 (Herbicidal rate of 5% or more and less than 20%)"},
      {"measurement": "herbicidal effect grade, L: windgrass", "setting": "windgrass [25]", "value": "5 (Herbicidal rate of 90% or more (almost completely withered))"}
    ]}
  ]
}
